Data taken from US9051342B2 (priority 2004, dated 2015).
Several values for one entry are separate records, joined by “and”; a condition that tells them apart may be missing. Equal entries are not always repeated.

Q: Which melting point does the source give for `COc1ccc(-n2cc(-c3cccc(C(=O)O)n3)cn2)cc1` [Compound 53, 6-[1-(4-Methoxy-phenyl)-1H-pyrazol-4-yl]-pyridine-2-carboxylic acid] here?
A: 122 to 123 °C

Q: With `O=C(O)c1cccc(-c2cnn(-c3ccc(Cl)cc3)c2)n1` [Compound 54, 6-[1-(4-Chloro-phenyl)-1H-pyrazol-4-yl]-pyridine-2-carboxylic acid] as the compound, how does the melting point read?
A: 194 to 196 °C

Q: For `COc1ccc(-n2cc(-c3cc(C(=O)O)ccc3[N+](=O)[O-])cn2)cc1` [Compound 55, 3-[1-(4-Methoxy-phenyl)-1H-pyrazol-4-yl]-4-nitro-benzoic acid], which melting point is on record?
A: 249 to 250 °C

Q: For `O=C(O)c1ccc([N+](=O)[O-])c(-c2cnn(-c3ccc(Cl)cc3)c2)c1` [Compound 56, 3-[1-(4-Chloro-phenyl)-1H-pyrazol-4-yl]-4-nitro-benzoic acid], which melting point is on record?
A: 270 to 271 °C

Q: Which melting point does the source give for `N#Cc1cccc(-c2ccn(-c3ccccc3)n2)c1` [Compound 57, 3-(1-Phenyl-1H-pyrazol-3-yl)-benzonitrile] here?
A: 78 to 80 °C

Q: Which melting point does the source give for `COc1ccc(-n2ccc(-c3cccc(C#N)c3)n2)cc1` [Compound 58, 3-[1-(4-Methoxy-phenyl)-1H-pyrazol-3-yl]-benzonitrile] here?
A: 110 to 112 °C

Q: With `COc1cccc(-n2ccc(-c3cccc(C#N)c3)n2)c1` [Compound 59, 3-[1-(3-Methoxy-phenyl)-1H-pyrazol-3-yl]-benzonitrile] as the compound, how does the melting point read?
A: 100 to 101 °C

Q: Which melting point does the source give for `N#Cc1cccc(-c2ccn(-c3ccc4c(c3)OCO4)n2)c1` [Compound 60, 3-(1-Benzo[1,3]dioxol-5-yl-1H-pyrazol-3-yl)-benzonitrile] here?
A: 144 to 147 °C

Q: For `N#Cc1cccc(-c2ccn(-c3ccc(OC(F)(F)F)cc3)n2)c1` [Compound 61, 3-[1-(4-Trifluoromethoxy-phenyl)-1H-pyrazol-3-yl]-benzonitrile], which melting point is on record?
A: 83 to 84 °C

Q: With `N#Cc1cccc(-c2ccn(-c3ccc(C(F)(F)F)cc3)n2)c1` [Compound 62, 3-[1-(4-Trifluoromethyl-phenyl)-1H-pyrazol-3-yl]-benzonitrile] as the compound, how does the melting point read?
A: 70 to 74 °C

Q: Which melting point does the source give for `N#Cc1cccc(-c2ccn(-c3ccc(F)c(F)c3)n2)c1` [Compound 63, 3-[1-(3,4-Difluoro-phenyl)-1H-pyrazol-3-yl]-benzonitrile] here?
A: 142 to 145 °C

Q: Which melting point does the source give for `COC(=O)c1cccc(-n2ccc(-c3cccc(C#N)c3)n2)c1` [Compound 64, 3-[3-(3-Cyano-phenyl)-pyrazol-1-yl]-benzoic acid methyl ester] here?
A: 143 to 145 °C

Q: With `O=C(O)c1cccc(-c2ccn(-c3ccccc3)n2)c1` [Compound 65, 3-(1-Phenyl-1H-pyrazol-3-yl)-benzoic acid] as the compound, how does the melting point read?
A: 202 to 204 °C

Q: Which melting point does the source give for `O=C(O)c1cccc(-c2ccn(-c3ccc(C(F)(F)F)cc3)n2)c1` [Compound 67, 3-[1-(4-Trifluoromethyl-phenyl)-1H-pyrazol-3-yl]-benzoic acid] here?
A: 225 to 227 °C

Q: With `O=C(O)c1cccc(-c2ccn(-c3ccc(F)c(F)c3)n2)c1` [Compound 68, 3-[1-(3,4-Difluoro-phenyl)-1H-pyrazol-3-yl]-benzoic acid] as the compound, how does the melting point read?
A: 240 to 244 °C

Q: With `O=C(O)c1cccc(-c2ccn(-c3cccc(C(=O)O)c3)n2)c1` [Compound 69, 1,3-Bis(3-carboxyphenyl)-1H-pyrazole] as the compound, how does the melting point read?
A: > 300 °C

Q: Which melting point does the source give for `O=C(O)c1cccc(-c2ccn(-c3ccc(O)cc3)n2)c1` [Compound 74, 3-[1-(4-Hydroxy-phenyl)-1H-pyrazol-3-yl]-benzoic acid] here?
A: 228 to 230 °C

Q: With `O=C(O)c1cccc(-c2ccn(-c3cccc(O)c3)n2)c1` [Compound 75, 3-[1-(3-Hydroxy-phenyl)-1H-pyrazol-3-yl]-benzoic acid] as the compound, how does the melting point read?
A: 178 to 190 °C and 178 to 179 °C

Q: For `COc1ccc(-n2ccc(-c3cccc(C(=O)O)c3)n2)cc1` [Compound 76, 3-[1-(4-Methoxy-phenyl)-1H-pyrazol-3-yl]-benzoic acid], which melting point is on record?
A: 160 to 161 °C

Q: For `COc1cccc(-n2ccc(-c3cccc(C(=O)O)c3)n2)c1` [Compound 77, 3-[1-(3-Methoxy-phenyl)-1H-pyrazol-3-yl]-benzoic acid], which melting point is on record?
A: 153 to 154 °C

Q: Which melting point does the source give for `N#Cc1cccc(-c2ccn(-c3cccc(C(=O)O)c3)n2)c1` [Compound 78, 3-[3-(3-Cyano-phenyl)-pyrazol-1-yl]-benzoic acid] here?
A: 164 to 166 °C

Q: Which melting point does the source give for `O=C(O)c1cccc(-n2ccc(-c3ccccc3)n2)c1` [Compound 79, 3-(3-Phenyl-pyrazol-1-yl)-benzoic acid] here?
A: 180 to 182 °C

Q: With `O=C(O)c1cccc(-n2ccc(-c3ccc(Cl)cc3)n2)c1` [Compound 80, 3-[3-(4-Chloro-phenyl)-pyrazol-1-yl]-benzoic acid] as the compound, how does the melting point read?
A: 230 to 235 °C

Q: With `COc1ccc(-c2ccn(-c3cccc(C(=O)O)c3)n2)cc1` [Compound 81, 3-[3-(4-Methoxy-phenyl)-pyrazol-1-yl]-benzoic acid] as the compound, how does the melting point read?
A: 210 to 211 °C

Q: For `O=C(O)c1cccc(-n2ccc(-c3ccc(N4CCOCC4)cc3)n2)c1` [Compound 82, 3-[3-(4-Morpholin-4-yl-phenyl)-pyrazol-1-yl]-benzoic acid], which melting point is on record?
A: 230 to 235 °C

Q: Which melting point does the source give for `O=C(O)c1cccc(-c2cnn(-c3ccc(Cl)cc3)c2)c1` [Compound 83, 3-[1-(4-Chloro-phenyl)-1H-pyrazol-4-yl]-benzoic acid] here?
A: 205 to 206 °C

Q: Which melting point does the source give for `O=C(O)c1cccc(-n2cc(-c3ccccc3F)cn2)c1` [Compound 84, 3-[4-(2-Fluoro-phenyl)-pyrazol-1-yl]-benzoic acid] here?
A: 225 to 226 °C

Q: With `O=C(O)c1ccc(-n2cc(-c3ccccc3F)cn2)cc1` [Compound 85, 4-[4-(2-Fluoro-phenyl)-pyrazol-1-yl]-benzoic acid] as the compound, how does the melting point read?
A: 260 to 261 °C

Q: With `O=C(O)c1cccc(-c2ccn(-c3ccccc3F)n2)c1` [Compound 86, 3-[1-(2-Fluoro-phenyl)-1H-pyrazol-3-yl]-benzoic acid] as the compound, how does the melting point read?
A: 157 to 158 °C

Q: Which melting point does the source give for `O=C(O)c1cccc(-c2ccn(-c3ccc4c(c3)OCO4)n2)c1` [Compound 87, 3-(1-Benzo[1,3]dioxol-5-yl-1H-pyrazol-3-yl)-benzoic acid] here?
A: 210 to 215 °C

Q: With `O=C(O)c1cccc(-n2cc(-c3cccc(Br)c3)cn2)c1` [Compound 88, 3-[4-(3-Bromo-phenyl)-pyrazol-1-yl]-benzoic acid] as the compound, how does the melting point read?
A: 177 to 178 °C

Q: For `O=C(O)c1ccc(-n2cc(-c3cccc(Br)c3)cn2)cc1` [Compound 89, 4-[4-(3-Bromo-phenyl)-pyrazol-1-yl]-benzoic acid], which melting point is on record?
A: 247 to 248 °C

Q: Which melting point does the source give for `Cc1cccc(-c2cnn(-c3cccc(C(=O)O)c3)c2)c1` [Compound 90, 3-(4-m-Tolyl-pyrazol-1-yl)-benzoic acid] here?
A: 181 to 182 °C

Q: With `Cc1cccc(-c2cnn(-c3ccc(C(=O)O)cc3)c2)c1` [Compound 91, 4-(4-m-Tolyl-pyrazol-1-yl)-benzoic acid] as the compound, how does the melting point read?
A: 251 to 252 °C

Q: With `O=C(O)c1cccc(-n2ccc(-c3ccc(F)cc3)n2)c1` [Compound 92, 3-[3-(4-Fluoro-phenyl)-pyrazol-1-yl]-benzoic acid] as the compound, how does the melting point read?
A: 237 to 240 °C

Q: With `O=C(O)c1cccc(-n2ccc(-c3cccc(F)c3)n2)c1` [Compound 93, 3-[3-(3-Fluoro-phenyl)-pyrazol-1-yl]-benzoic acid] as the compound, how does the melting point read?
A: 173 to 174 °C

Q: For `O=C(O)c1cccc(-n2ccc(-c3ccc(C(F)(F)F)cc3)n2)c1` [Compound 94], which melting point is on record?
A: 225 to 227 °C

Q: With `O=C(O)c1cccc(-n2ccc(-c3ccc(OC(F)(F)F)cc3)n2)c1` [Compound 95, 3-[3-(4-Trifluoromethoxy-phenyl)-pyrazol-1-yl]-benzoic acid] as the compound, how does the melting point read?
A: 191 to 194 °C

Q: Which melting point does the source give for `O=C(O)c1cccc(-c2ccn(-c3ccc(F)cc3)n2)c1` [Compound 96, 3-[1-(4-Fluoro-phenyl)-1H-pyrazol-3-yl]-benzoic acid] here?
A: 245 to 246 °C

Q: For `COc1ccc(-n2cc(-c3cccc(C(=O)O)c3)cn2)cc1` [Compound 97], which melting point is on record?
A: 225 to 227 °C and 223 to 225 °C

Q: For `O=C(O)c1cccc(-n2cc(-c3ccccc3)cn2)c1` [Compound 98, 3-(4-Phenyl-pyrazol-1-yl)-benzoic acid], which melting point is on record?
A: 225 to 226 °C

Q: For `O=C(O)c1ccc(-n2cc(-c3ccccc3)cn2)cc1` [Compound 99, 4-(4-Phenyl-pyrazol-1-yl)-benzoic acid], which melting point is on record?
A: 267 to 269 °C

Q: Which melting point does the source give for `O=C(O)c1cccc(-n2cc(-c3ccc(O)cc3)cn2)c1` [Compound 100, 3-[4-(4-Hydroxy-phenyl)-pyrazol-1-yl]-benzoic acid] here?
A: 282 to 284 °C

Q: Which melting point does the source give for `O=C(O)c1cccc(-n2cc(-c3ccc([N+](=O)[O-])cc3)cn2)c1` [Compound 101, 3-[4-(4-Nitro-phenyl)-pyrazol-1-yl]-benzoic acid] here?
A: 274 to 276 °C

Q: For `O=C(O)c1ccc(-n2cc(-c3ccc([N+](=O)[O-])cc3)cn2)cc1` [Compound 102, 4-[4-(4-Nitro-phenyl)-pyrazol-1-yl]-benzoic acid], which melting point is on record?
A: 276 to 277 °C

Q: Which melting point does the source give for `O=C(O)c1cccc(-n2cc(-c3ccc(F)cc3F)cn2)c1` [Compound 103, 3-[4-(2,4-Difluoro-phenyl)-pyrazol-1-yl]-benzoic acid] here?
A: 283 to 285 °C

Q: Which melting point does the source give for `O=C(O)c1ccc(-n2cc(-c3ccc(F)cc3F)cn2)cc1` [Compound 104, 4-[4-(2,4-Difluoro-phenyl)-pyrazol-1-yl]-benzoic acid] here?
A: 291 to 293 °C

Q: With `CC(C)c1ccc(-n2ccc(-c3ccc(C(=O)O)cc3)c2)cc1` [Compound 106, 4-[1-(4-Isopropyl-phenyl)-1H-pyrrol-3-yl]-benzoic acid] as the compound, how does the melting point read?
A: 240 to 243 °C

Q: Which melting point does the source give for `O=C(O)c1cccc(-n2cc(-c3ccc(OC(F)F)cc3)cn2)c1` [Compound 107, 3-[4-(4-Difluoromethoxy-phenyl)-pyrazol-1-yl]-benzoic acid] here?
A: 118 to 120 °C

Q: Which melting point does the source give for `Nc1ccc(-c2cnn(-c3cccc(C(=O)O)c3)c2)cc1` [Compound 108, 3-[4-(4-Amino-phenyl)-pyrazol-1-yl]-benzoic acid] here?
A: 209 to 210 °C

Q: Which melting point does the source give for `COc1cccc(-c2cnn(-c3ccc(C(=O)O)cc3)c2)c1` [Compound 109, 4-[4-(3-Methoxy-phenyl)-pyrazol-1-yl]-benzoic acid] here?
A: 222 to 223 °C

Q: Which melting point does the source give for `CN(C)c1ccc(-c2cnn(-c3cccc(C(=O)O)c3)c2)cc1` [Compound 110, 3-[4-(4-Dimethylamino-phenyl)-pyrazol-1-yl]-benzoic acid] here?
A: 224 to 225 °C
